Data from ChEMBL document CHEMBL3112568, “Synthesis, antifungal activities and molecular docking studies of novel 2-(2,4-difluorophenyl)-2-hydroxy-3-(1H-1,2,4-triazol-1-yl)propyl dithiocarbamates” (2014).
In brackets after ≈: the same amount, converted by molar mass.

How the values were obtained:
Format in all cases: functional
Nannizzia gypsea = assay: Antifungal activity against Microsporum gypseum by micro-broth dilution method
Candida parapsilosis = assay: Antifungal activity against Candida parapsilosis by micro-broth dilution method; conditions: Lodderomyces parapsilosis
Trichophyton rubrum = assay: Antifungal activity against Trichophyton rubrum by micro-broth dilution method
Cryptococcus neoformans = assay: Antifungal activity against Cryptococcus neoformans after 72 hrs by micro-broth dilution method
Candida albicans [1] = assay: Antifungal activity against Candida albicans SC5314 after 24 hrs by micro-broth dilution method; conditions: SC5314, 24 h
Candida albicans [2] = assay: Antifungal activity against Candida albicans Y0109 after 24 hrs by micro-broth dilution method; conditions: Y0109, 24 h
Nakaseomyces glabratus = assay: Antifungal activity against Candida glabrata by micro-broth dilution method
Aspergillus fumigatus = assay: Antifungal activity against Aspergillus fumigatus by micro-broth dilution method

Compound	MIC80 (Nannizzia gypsea)	MIC80 (Candida parapsilosis)	MIC80 (Trichophyton rubrum)	MIC80 (Cryptococcus neoformans)	MIC80 (Candida albicans [1])	MIC80 (Candida albicans [2])	MIC80 (Nakaseomyces glabratus)	MIC80 (Aspergillus fumigatus)
OCCN(Cc1ccccc1)C(=S)SCC(O)(Cn1cncn1)c1ccc(F)cc1F (racemic)	32 µg/mL (≈ 68.9 µM)	0.25 µg/mL (≈ 0.538 µM)	2 µg/mL (≈ 4.31 µM)	2 µg/mL (≈ 4.31 µM)	0.25 µg/mL (≈ 0.538 µM)	0.25 µg/mL (≈ 0.538 µM)	≤ 0.125 µg/mL	> 64 µg/mL
OC(CSC(=S)NCc1ccccc1)(Cn1cncn1)c1ccc(F)cc1F (racemic)	32 µg/mL (≈ 76.1 µM)	8 µg/mL (≈ 19 µM)	0.5 µg/mL (≈ 1.19 µM)	16 µg/mL (≈ 38 µM)	0.5 µg/mL (≈ 1.19 µM)	1 µg/mL (≈ 2.38 µM)	8 µg/mL (≈ 19 µM)	> 64 µg/mL
OC(CSC(=S)N1CCN(c2ccccc2Cl)CC1)(Cn1cncn1)c1ccc(F)cc1F (racemic)	2 µg/mL (≈ 3.92 µM)	0.5 µg/mL (≈ 0.98 µM)	1 µg/mL (≈ 1.96 µM)	≤ 0.125 µg/mL	≤ 0.125 µg/mL	≤ 0.125 µg/mL	0.5 µg/mL (≈ 0.98 µM)	8 µg/mL (≈ 15.7 µM)
